Source: US11590117B2, “Treatment of a hematologic malignancy with 2-(4-chlorophenyl)-n-((2-(2,6-dioxopiperidin-3-yl)-1-oxoisoindolin-5-yl)methyl)-2,2-difluoroacetamide” (priority 2016, dated 2023)
pIC50: −log10 of the molar value. Read-outs that look alike come from different tables or passages of the source.

Columns and labels:
HNT-34 cells and PBMCs = assay: Flow cytometry caspase 3/7 assay; type: cell-based, human; settings: HNT-34 cells over non-pre-activated PBMCs; 0.1 μM Compound 1; 72 hours
Experimental: Cell Apoptosis Assays: The ability of Compound 1 to induce apoptosis was assessed in selected AML cell lines and healthy PBMCs at the time points and compound concentrations indicated. For Annexin V/7-AAD readout by flow cytometry, AML cell lines were plated into flat bottom 96-well plates (BD Falcon) at a seeding density of 0.1 to 0.3×10^6 cells per mL in 200 μL complete media. Compound 1 was dispensed onto the plates and the cells were incubated for the times indicated. For frozen PBMCs, cells were thawed as previously described and plated at a seeding density of 1×10^6 cells per mL in 200 μL on Corning® BioCoat™ T-Cell Activation Anti-Human CD3 96-well plates (Corning Inc., Corning, N.Y.). Compound 1 was dispensed onto the plates and the cells were incubated for the times indicated. […] One hundred microliters of Annexin V/7-AAD buffer was added per well and the cells incubated for 15 minutes before being analyzed using the Attune Flow Cytometer (Life Technologies, Carlsbad, Calif.). For caspase 3/7 activity, the remaining 100 μL was incubated with CellEvent™ Caspase-3/7 Green ReadyProbes® Reagent (1:1000 dilution; Molecular Probes) for 15 minutes before being analyzed using the Attune Flow Cytometer. […]
The effects of Compound 1 in healthy PBMCs were also assessed. Compound 1 was added to PBMC s from one donor at time zero and assessed at 72 hours. […]

[1] = tested on: BFU-E (erythroid progenitors); assay: cells; type: cell-based, human; settings: for pIC50: Homo sapiens
Experimental: Experimental design: human bone marrow (BM) CD34+ cells were used to evaluate the potential for BM toxicity induced by Compound 1. In order to test the effects of Compound 1 on the functionality of hematopoietic progenitors, colony forming assays were done by seeding BM CD34+ cells on MethoCult medium. Cells were seeded directly in MethoCult with Compound 1 or cultured in liquid medium with Compound 1 for 2, 4, or 8 hours and then seeded in compound-free MethoCult to evaluate the effect of different exposure times. Early apoptosis induced by Compound 1 on HSC was analyzed by flow cytometry.
Results. Colony forming units (CFU) of common granulocyte/erythrocyte/monocyte/megakaryocyte (CFU-GEMM), CFU of granulocyte/monocyte (CFU-GM), burst forming unit of erythrocytes (BFU-E), and CFU of erythrocytes (CFU-E) in cultures exposed to Compound 1 or DMSO were scored on STEMvision.
Bone marrow CD34+ cells from normal donors were incubated with Compound 1 in MethoCult medium. Colony numbers for CFU-GM and BFU-E progenitors were counted using STEMVision automatic colony counting instrument and software and normalized to the colony number of the DMSO control. Results plotted as percentage of DMSO control vs concentration of Compound 1 were used to determine IC50 values. Data are shown as mean standard error of the mean of n=3 technical replicates. Donors were HD10, HD14, HD18, and HD19.
FIGS. 33A and 33B provide, colony numbers after preincubation of bone marrow CD34+ cells with Compound 1 for 4 or 8 hours, respectively, in Iscove's medium, followed by incubation in MethoCult medium without Compound 1 for 14 days. FIG. 33C provides colony numbers after incubation of bone marrow CD34+ cells in MethoCult medium in continuous presence of Compound 1 for 14 days.

For `O=C1CCC(N2Cc3cc(CNC(=O)C(F)(F)c4ccc(Cl)cc4)ccc3C2=O)C(=O)N1` (stereo not shown) [Compound 1, 2-(4-chlorophenyl)-N-((2-(2,6-dioxopiperidin-3-yl)-1-oxoisoindolin-5-yl)methyl)-2,2-difluoroacetamide], the “difference in elevation of caspase 3/7 activity” value (HNT-34 cells and PBMCs) was about 3 fold, the “reduction in number of BFU-E colonies” value ([1]; 8 hours exposure, Compound 1 ≥111 nM, donors HD46, HD47, HD48, HD50) was “more than 50%” and the pIC50 ([1]; 8 hours exposure, donors HD46, HD47, HD48, HD50, read-out: individual IC50 values, BFU-E colonies) was 6.82 to 7.52. The pIC50 ([1]; CD34+ cells from four healthy donors, Compound 1 in MethoCult, read-out: IC50, inhibition of erythroid progenitors (BFU-E)) was 6.88 to 7.49.
